Assay results published in ChEMBL document CHEMBL4270492, “Free radicals and polyphenols: The redox chemistry of neurodegenerative diseases” (Eur J Med Chem, 2017).

How the values were obtained:
[1] = Antioxidant activity assessed as superoxide anion free radical scavenging activity by measuring rate constant using UV irradiation by ESR spin trapping method; assay type: functional
[2] = Antioxidant activity assessed as hydroxyl radical scavenging activity by measuring rate constant using UV irradiation by ESR spin trapping method; assay type: functional
[3] = Antioxidant activity assessed as singlet oxygen scavenging activity by measuring rate constant using VIS irradiation by ESR spin trapping method; assay type: functional
[4] = Antioxidant activity assessed as alkoxyl radical scavenging activity by measuring rate constant by ESR spin trapping method; assay type: functional
[5] = Metal chelating activity assessed as equilibrium constant for formation of compound-Fe2+ complex formation
[6] = Metal chelating activity assessed as equilibrium constant for formation of compound-Cu2+ complex formation
[7] = Metal chelating activity assessed as equilibrium constant for formation of compound-Al3+ complex formation
[8] = Electrochemical behaviour of the compound assessed as peak potential; assay type: physicochemical
[9] = Electrochemical behaviour of the compound assessed as peak potential using disposable screen-printed carbon electrodes; assay type: physicochemical
[10] = Antioxidant activity assessed as DPPH free radical scavenging activity; assay type: functional
[11] = Antioxidant activity assessed as effect on linolenic acid autooxidation in presence of 0.5 M SDS based micellar systems; assay type: functional
[12] = Antioxidant activity assessed as effect on linolenic acid autooxidation in presence of 0.015 M SDS based micellar systems; assay type: functional
[13] = Antioxidant activity assessed as effect on linolenic acid autooxidation in presence of DLPC liposomes; assay type: functional

| Compound | K [1] [×10³ /M/s] | K [2] [×10⁹ /M/s] | K [3] [×10⁷ /M/s] | K [4] [×10⁵ /M/s] | Ep [9] [mV] | EC50 [10] [µmol] | further results |
| --- | --- | --- | --- | --- | --- | --- | --- |
| O=c1c(-c2ccc(O)cc2)coc2cc(O)cc(O)c12 | 2.75 | 11.8 | 19.1 | 20.7 | – | – | – |
| O=C(O)CC(O)(CC(=O)O)C(=O)O | – | – | – | – | – | – | K [5]: 1600 M⁻¹; K [6]: 1000 to 100000 M⁻¹; K [7]: 1000 to 100000 M⁻¹ |
| O=C(O)c1ccc(O)c(O)c1 [PROTOCATECHUIC ACID] | – | – | – | – | 410 | 0.0574 | Ep [8]: 188 to 317 mV |
| O=C(/C=C/c1ccc(O)c(O)c1)O[C@@H]1C[C@](O)(C(=O)O)C[C@@H](O)[C@H]1O | 288 | 9.6 | 38.6 | 111 | – | – | – |
| O=C(O)/C=C/c1ccccc1O [O-COUMARIC ACID] | – | – | – | – | 750 | 130.05 | – |
| COc1cc(C(=O)O)cc(OC)c1O [SYRINGIC ACID] | – | – | – | – | 490 | 0.0427 | – |
| Cc1c(C)c2c(c(C)c1O)CCC(C)(C(=O)O)O2 (centres undefined) | 2.1 | 24.8 | 6.22 | 48.3 | – | – | K [11]: 110000 M⁻¹ s⁻¹; K [12]: 1 ×10⁴ /M/s; K [13]: 0.58 ×10⁴ /M/s |
| N[C@@H](CCC(=O)N[C@@H](CS)C(=O)NCC(=O)O)C(=O)O | 1.11 | 16.4 | 93.9 | 27.6 | – | – | – |
| COc1cc(/C=C/C(=O)O)cc(OC)c1O [SINAPINATE] | – | – | – | – | – | 0.0724 | Ep [8]: 188 to 295 mV |
| C[C@@H]1O[C@@H](OC[C@H]2O[C@@H](Oc3c(-c4ccc(O)c(O)c4)oc4cc(O)cc(O)c4c3=O)[C@H](O)[C@@H](O)[C@@H]2O)[C@H](O)[C@H](O)[C@H]1O | 15.4 | 6.38 | 34.8 | 69 | – | – | – |
| O=C(O)c1ccccc1O [SALICYLIC ACID] | – | – | – | – | 940 | > 800 | – |
| O=C(O)c1cc(O)c(O)c(O)c1 [GALLIC ACID] | – | – | – | – | – | 0.0237 | Ep [8]: 110 to 544 mV |
| COc1cc(C(C)(C)C)c(O)c(C(C)(C)C)c1 | – | – | – | – | – | – | K [11]: 1 ×10⁴ /M/s; K [12]: 2.5 ×10⁴ /M/s; K [13]: 2.75 ×10⁴ /M/s |
| CC(=O)N[C@@H](CS)C(=O)O | 0.5 | 13.6 | 20.5 | 19.3 | – | – | – |
| Oc1nc(O)c2nc(O)[nH]c2n1 | 10.6 | 9.52 | 2.3 | 106 | – | – | – |
| O=C(O)c1ccc(O)cc1 [PARABEN] | – | – | – | – | 870 | > 800 | – |
| O=C(O)/C=C/c1ccc(O)cc1 [COUMARIC ACID] | – | – | – | – | 670 | 66.29 | Ep [8]: 736 mV |
| Cc1cc(C(C)(C)C)c(O)c(C(C)(C)C)c1 | – | – | – | – | – | – | K [11]: 1.1 ×10⁴ /M/s; K [12]: 3.4 ×10⁴ /M/s; K [13]: 0.37 ×10⁴ /M/s |
| O=C(O)/C=C/c1cc(O)c(O)c(O)c1 | – | – | – | – | – | – | Ep [8]: 384 mV |
| COc1cc(/C=C/C(=O)O)ccc1O [FERULATE] | – | – | – | – | 447 | 0.0927 | Ep [8]: 335 mV |
| COc1cc(C(=O)O)ccc1O [VANILLIC ACID] | – | – | – | – | 730 | 14.37 | – |
| O=C(O)/C=C/c1ccc(O)c(O)c1 [CAFFEIC ACID] | 10.6 | 8.06 | 54.7 | 75.9 | 450 | 0.0478 | Ep [8]: 183 mV |
| O=C(O)/C=C/c1cccc(O)c1 | – | – | – | – | 780 | > 300 | – |
| O=C(O)c1cc(O)ccc1O [GENTISIC ACID] | – | – | – | – | – | 0.0292 | – |
